In patent US12258338B2, “Modulators of the integrated stress response pathway” (EVOTEC INTERNATIONAL GMBH, priority 2019, dated 2025):

Tests used:
ATF4 = assay: HEK-ATF4 High Content Imaging assay (prevention of Tunicamycin induced ISR; ATF4 signal ratio between nucleus and cytoplasm); type: cell-based; conditions: Homo sapiens; Wild-type HEK293 cells, Tunicamycin induced ISR, 6 h; read-out: IIEK-ATF4 Activity
Method in brief: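 Wild-type HEK293 cells in 0.3% FBS medium were co-treated with compounds and Tunicamycin (3.3 μM in prediluted medium, 11-fold over final) for 6 h at 37 °C. Fixed cells were immunostained for ATF4 with Hoechst nuclei; imaging gave nuclear/cytoplasmic ATF4 ratio, with nuclei counts as toxicity control.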

[1] = target: T1, human ERG potassium channel (hERG) (Homo sapiens, UniProt Q12809); assay: hERG channel tail current recording using in vitro Rapid ICE (automated patch-clamp, QPatch HTX); type: cell-based; conditions: Table 26
T1 construct: expressed in transfected cells; host or cells: HEK293, stably transfected, tetracycline-inducible promoter
T1 sequence (Q12809 whole entry): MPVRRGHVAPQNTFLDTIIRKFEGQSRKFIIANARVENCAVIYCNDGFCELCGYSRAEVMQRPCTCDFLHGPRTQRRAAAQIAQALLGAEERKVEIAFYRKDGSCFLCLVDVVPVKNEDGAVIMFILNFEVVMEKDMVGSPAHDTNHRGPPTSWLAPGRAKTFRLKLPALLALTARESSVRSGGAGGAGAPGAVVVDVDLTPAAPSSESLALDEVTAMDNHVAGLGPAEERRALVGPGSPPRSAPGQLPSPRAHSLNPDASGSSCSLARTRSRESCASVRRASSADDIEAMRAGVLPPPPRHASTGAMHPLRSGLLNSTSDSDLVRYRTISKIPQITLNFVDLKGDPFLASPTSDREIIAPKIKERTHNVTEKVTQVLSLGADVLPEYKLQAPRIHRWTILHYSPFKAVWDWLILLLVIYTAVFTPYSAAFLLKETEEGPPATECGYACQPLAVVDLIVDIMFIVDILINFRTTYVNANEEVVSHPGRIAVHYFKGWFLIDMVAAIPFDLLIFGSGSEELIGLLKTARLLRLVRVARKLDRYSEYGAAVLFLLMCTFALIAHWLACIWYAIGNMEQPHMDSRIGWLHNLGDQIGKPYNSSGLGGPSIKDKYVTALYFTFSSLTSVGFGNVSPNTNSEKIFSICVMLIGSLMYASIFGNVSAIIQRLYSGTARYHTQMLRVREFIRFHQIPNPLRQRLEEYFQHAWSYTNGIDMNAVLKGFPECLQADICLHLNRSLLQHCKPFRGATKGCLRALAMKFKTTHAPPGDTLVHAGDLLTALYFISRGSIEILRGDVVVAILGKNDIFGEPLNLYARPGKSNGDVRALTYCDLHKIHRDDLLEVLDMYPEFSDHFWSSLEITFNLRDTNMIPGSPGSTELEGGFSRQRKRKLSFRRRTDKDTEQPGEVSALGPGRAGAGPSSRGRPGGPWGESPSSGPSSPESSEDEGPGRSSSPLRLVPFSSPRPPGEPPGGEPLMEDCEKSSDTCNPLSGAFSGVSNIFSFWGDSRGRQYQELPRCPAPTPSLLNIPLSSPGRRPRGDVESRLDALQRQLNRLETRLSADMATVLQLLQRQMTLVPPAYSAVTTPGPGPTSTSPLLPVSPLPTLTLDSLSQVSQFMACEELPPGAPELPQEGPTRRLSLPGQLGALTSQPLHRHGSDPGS
Protocol: Protocol—Measure of the Effect on hERG Channel by Tail Current Recording Using In Vitro Rapid ICE
The potency of the example compounds in inhibiting human ERG potassium channel (hERG) tail current was assessed in a recombinant HEK293 cell line stably transfected with hERG cDNA under an inducible promoter, using Rapid ICE (rapid ion channel electrophysiology) assay. Rapid ICE is an automated patch-clamp assay utilizing the QPatch HTX system (Sophion Bioscience A/S). Briefly, inducible HEK hERG cells were cultivated in minimum essential medium supplemented with 10% FBS, 1% non-essential amino acids, 1% sodium pyruvate, 2 mM 1-glutamine, 15 μg/mL blasticidin, and 100 μg/mL hygromycin. hERG channel expression induction was obtained by adding 10 μg/mL tetracycline for 24, 48, or 72 h before recordings.
On the day of the experiment, cells were detached with TrypLE and prepared to be loaded on the instrument. Cells were resuspended in 7 mL of Serum-Free Media containing 25 mM Hepes and soybean trypsin inhibitor and immediately placed in the cell storage tank of the machine. The composition of the extracellular buffer was (mM): NaCl 137, KCl 4, CaCl2 1.8, MgCl2 1.0, d-glucose 10, N-2-hydroxyethylpiperazine-N′-2-ethanesulfonic acid (HEPES) 10, pH 7.4 with 1 M NaOH. The composition of the intracellular solution was (mM): KCl 130, MgCl2 1.0, ethylene glycol-bis(β-aminoethyl ether)-N,N,N′,N′-tetraacetic acid (EGTA) 5, MgATP 5, HEPES 10, pH 7.2 with 1 M KOH. The voltage protocol included the following steps: step from −80 to −50 mV for 200 ms, +20 mV for 4.8 s, step to −50 mV for 5 s, then step to the holding potential of −80 mV. Compounds were dissolved in DMSO and diluted in extracellular buffer to achieve final test concentrations (0.3, 3, and 30 μM) in 0.3% DMSO. The voltage protocol was run and recorded continuously during the experiment. The vehicle, corresponding to 0.3% DMSO in extracellular buffer was then applied for 3 min, followed by the test substance in triplicate. The standard combined exposure time was 5 min. The average of tail current amplitude values recorded from four sequential voltage pulses was used to calculate for each cell the effect of the test substance by calculating the residual current (% control) compared with vehicle pretreatment. Data were reported as % inhibition for each concentration tested, and IC50 values were estimated using QPatch software. At least two cells were tested, and even more if results diverged.

IC50 (ATF4) [nM]	SMILES	IC50 [1] [µM]
2000 to 15000	CC(CC(F)(F)F)Oc1nnc([C@H]2CC[C@H](NC(=O)COc3ccc(Cl)c(F)c3)CN2)o1 (stereo partly drawn) [Example 64, 2-(4-chloro-3-fluorophenoxy)-N-[(3S,6R)-6-{5-[(4,4,4-trifluorobutan-2-yl)oxy]-1,3,4-oxadiazol-2-yl}piperidin-3-yl]acetamide]	> 5
500 to 2000	O=C(COc1ccc(Cl)c(F)c1)N[C@H]1CC[C@H](c2nnc(OCC3CC3(F)F)o2)NC1 (stereo partly drawn) [Example 66, 2-(4-chloro-3-fluorophenoxy)-N-[(3S,6R)-6-{5-[(2,2-difluorocyclopropyl)methoxy]-1,3,4-oxadiazol-2-yl}piperidin-3-yl]acetamide]	1 to 5
1 to 500	O=C(COc1ccc(Cl)c(F)c1)N[C@H]1CC[C@H](c2nnc(OCCC3CC3)o2)NC1 [Example 69, 2-(4-chloro-3-fluorophenoxy)-N-[(3S,6R)-6-[5-(2-cyclopropylethoxy)-1,3,4-oxadiazol-2-yl]piperidin-3-yl]acetamide]	0.001 to 1
500 to 2000	O=C(COc1ccc(Cl)c(F)c1)N[C@H]1CC[C@H](c2nnc(OCC3CCC3(F)F)o2)NC1 (stereo partly drawn) [Example 71, 2-(4-chloro-3-fluorophenoxy)-N-[(3S,6R)-6-{5-[(2,2-difluorocyclobutyl)methoxy]-1,3,4-oxadiazol-2-yl}piperidin-3-yl]acetamide]	1 to 5
500 to 2000	CC(C)(C)OC(=O)N1C[C@@H](NC(=O)COc2ccc(Cl)c(F)c2)CC[C@@H]1c1nnc(OCCOC(F)(F)F)o1 [Example 76, tert-butyl (2R,5S)-5-[2-(4-chloro-3-fluorophenoxy)acetamido]-2-{5-[2-(trifluoromethoxy)ethoxy]-1,3,4-oxadiazol-2-yl}piperidine-1-carboxylate]	> 5
1 to 500	CCCCCOc1nnc([C@H]2CC[C@H](NC(=O)COc3ccc(Cl)c(F)c3)CN2)o1 [Example 78, 2-(4-chloro-3-fluorophenoxy)-N-[(3S,6R)-6-[5-(pentyloxy)-1,3,4-oxadiazol-2-yl]piperidin-3-yl]acetamide]	1 to 5
2000 to 15000	COCCCOc1nnc([C@H]2CC[C@H](NC(=O)COc3ccc(Cl)c(F)c3)CN2)o1 [Example 79, 2-(4-chloro-3-fluorophenoxy)-N-[(3S,6R)-6-[5-(3-methoxypropoxy)-1,3,4-oxadiazol-2-yl]piperidin-3-yl]acetamide]	> 5
1 to 500	O=C(COc1ccc(Cl)c(F)c1)N[C@H]1CC[C@H](c2nnc(OCCOC3CC3)o2)NC1 [Example 80, 2-(4-chloro-3-fluorophenoxy)-N-[(3S,6R)-6-[5-(2-cyclopropoxythoxy)-1,3,4-oxadiazol-2-yl]piperidin-3-yl]acetamide]	> 5
500 to 2000	CCOCCOc1nnc([C@H]2CC[C@H](NC(=O)COc3ccc(Cl)c(F)c3)CN2)o1 [Example 81, 2-(4-chloro-3-fluorophenoxy)-N-[(3S,6R)-6-[5-(2-ethoxyethoxy)-1,3,4-oxadiazol-2-yl]piperidin-3-yl]acctamide]	> 5
1 to 500	O=C(COc1ccc(Cl)c(F)c1)N[C@@H]1CC[C@@H](c2nnc(OCCOC(F)(F)F)o2)NC1 [Example 83, 2-(4-chloro-3-fluorophenoxy)-N-[(3R,6S)-6-{5-[2-(trifluoromethoxy)ethoxy]-1,3,4-oxadiazol-2-yl}piperidin-3-yl]acetamide]	> 5
1 to 500	O=C(COc1ccc(Cl)c(Cl)c1)N[C@H]1CC[C@H](c2nnc(OCCOC3CC3)o2)NC1 [Example 86, N-[(3S,6R)-6-[5-(2-cyclopropoxyethoxy)-1,3,4-oxadiazol-2-yl]piperidin-3-yl]-2-(3,4-dichlorophenoxy)acetamide]	1 to 5
1 to 500	O=C(COc1ccc(Cl)c(F)c1)N[C@H]1CC[C@H](c2nnc(OCCOC3CC3(F)F)o2)NC1 (stereo partly drawn) [Example 87, 2-(4-chloro-3-fluorophenoxy)-N-[(3S,6R)-6-{5-[2-(2,2-difluorocyclopropoxy)ethoxy]-1,3,4-oxadiazol-2-yl}piperidin-3-yl]acetamide]	1 to 5
500 to 2000	O=C(COc1ccc(Cl)c(F)c1)N[C@H]1CC[C@H](c2nnc(OCC3CC3C(F)(F)F)o2)NC1 (stereo partly drawn) [Example 88, 2-(4-chloro-3-fluorophenoxy)-N-[(3S,6R)-6-(5-{[2-(trifluoromethyl)cyclopropyl]methoxy}-1,3,4-oxadiazol-2-yl)piperidin-3-yl]acetamide]	1 to 5
1 to 500	O=C(COc1ccc(Cl)c(F)c1)N[C@H]1CC[C@H](c2nnc(N3CC(OC(F)(F)F)C3)o2)NC1 [Example 91, 2-(4-chloro-3-fluorophenoxy)-N-[(3S,6R)-6-{5-[3-(trifluoromethoxy)azetidin-1-yl]-1,3,4-oxadiazol-2-yl}piperidin-3-yl]acetamide]	1 to 5
500 to 2000	O=C(COc1ccc(Cl)c(F)c1)N[C@H]1CC[C@H](c2nnc(N3CC(CC(F)(F)F)C3)o2)NC1 [Example 92, 2-(4-chloro-3-fluorophenoxy)-N-[(3S,6R)-6-{5-[3-(2,2,2-trifluoroethyl)azetidin-1-yl]-1,3,4-oxadiazol-2-yl}piperidin-3-yl]acetamide]	1 to 5
500 to 2000	CC1(OC(F)(F)F)CN(c2nnc([C@H]3CC[C@H](NC(=O)COc4ccc(Cl)c(F)c4)CN3)o2)C1 [Example 93, 2-(4-chloro-3-fluorophenoxy)-N-[(3S,6R)-6-{5-[3-methyl-3-(trifluoromethoxy)azetidin-1-yl]-1,3,4-oxadiazol-2-yl}piperidin-3-yl]acetamide]	> 5
2000 to 15000	CN(CCOC(F)(F)F)c1nnc([C@H]2CC[C@H](NC(=O)COc3ccc(Cl)c(F)c3)CN2)o1 [Example 94, 2-(4-chloro-3-fluorophenoxy)-N-[(3S,6R)-6-(5-{methyl[2-(trifluoromethoxy)ethyl]amino}-1,3,4-oxadiazol-2-yl)piperidin-3-yl]acetamide]	> 5
1 to 500	O=C(COc1cnc(Cl)c(F)c1)N[C@H]1CC[C@H](c2nnc(-c3ccc(Cl)c(Cl)c3)o2)NC1 [Example 100, 2-[(6-chloro-5-fluoropyridin-3-yl)oxy]-N-[(3S,6R)-6-[5-(3,4-dichlorophenyl)-1,3,4-oxadiazol-2-yl]piperidin-3-yl]acetamide]	1 to 5

SMILES	IC50 (ATF4) [nM]	IC50 [1] [µM]
CC(F)(F)CCOc1nnc([C@H]2CC[C@H](NC(=O)COc3ccc(Cl)c(F)c3)CN2)o1 [Example 65, 2-(4-chloro-3-fluorophenoxy)-N-[(3S,6R)-6-[5-(3,3-difluorobutoxy)-1,3,4-oxadiazol-2-yl]piperidin-3-yl]acetamide]	500 to 2000	1 to 5
CCCCOc1nnc([C@H]2CC[C@H](NC(=O)COc3ccc(Cl)c(F)c3)CN2)o1 [Example 67, N-[(3S,6R)-6-(5-butoxy-1,3,4-oxadiazol-2-yl)piperidin-3-yl]-2-(4-chloro-3-fluorophenoxy)acetamide]	1 to 500	1 to 5
CC(C)CCOc1nnc([C@H]2CC[C@H](NC(=O)COc3ccc(Cl)c(F)c3)CN2)o1 [Example 70, 2-(4-chloro-3-fluorophenoxy)-N-[(3S,6R)-6-[5-(3-methylbutoxy)-1,3,4-oxadiazol-2-yl]piperidin-3-yl]acetamide]	1 to 500	1 to 5
O=C(COc1ccc(Cl)c(F)c1)N[C@H]1CC[C@H](c2nnc(OC3CC(F)(F)C3)o2)NC1 [Example 72, 2-(4-chloro-3-fluorophenoxy)-N-[(3S,6R)-6-[5-(3,3-difluorocyclobutoxy)-1,3,4-oxadiazol-2-yl]piperidin-3-yl]acetamide]	2000 to 15000	1 to 5
O=C(COc1ccc(Cl)c(F)c1)N[C@H]1CC[C@H](c2nnc(OCCOC3CCC3)o2)NC1 [Example 82, 2-(4-chloro-3-fluorophenoxy)-N-[(3S,6R)-6-[5-(2-cyclobutoxyethoxy)-1,3,4-oxadiazol-2-yl]piperidin-3-yl]acetamide]	1 to 500	> 5
